Test results from paper PMC4668384 (Scientific Reports, 2015).
In brackets after ≈: the same amount, converted by molar mass. Like-named read-outs stand apart in the source and are kept apart here.

Experiments:
[1] = test system: V. virens isolate FJ4-1b (wild type); assay: Tebuconazole sensitivity, mycelial growth on amended PSA, wild type isolate; format: cell-based, Villosiclava virens; conditions: Ustilaginoidea virens, 336 h, 28 °C, 14 days
Description: Mycelial plugs (6 mm) were transferred in triplicates from the margins of 14-day old colonies to 9 cm petri dishes containing nonamended or tebuconazole-amended PSA. Dishes were incubated at 28 °C for 14 days in darkness. The average colony diameter was measured in two perpendicular directions, and the EC50 value was determined by regressing percentage growth inhibition against the log of fungicide concentration.

[2] = test system: V. virens pB-Vv51wt transformants (P-F); assay: Tebuconazole sensitivity, mycelial growth on amended PSA, pB-Vv51wt transformants; format: cell-based, Villosiclava virens; conditions: Ustilaginoidea virens
[3] = target: T1, truncated wild type VvCYP51 (Ustilaginoidea virens (Villosiclava virens), UniProt X2GGV8); assay: UV-visible spectral binding assay, truncated wild type protein
T1 sequence (X2GGV8 29-528): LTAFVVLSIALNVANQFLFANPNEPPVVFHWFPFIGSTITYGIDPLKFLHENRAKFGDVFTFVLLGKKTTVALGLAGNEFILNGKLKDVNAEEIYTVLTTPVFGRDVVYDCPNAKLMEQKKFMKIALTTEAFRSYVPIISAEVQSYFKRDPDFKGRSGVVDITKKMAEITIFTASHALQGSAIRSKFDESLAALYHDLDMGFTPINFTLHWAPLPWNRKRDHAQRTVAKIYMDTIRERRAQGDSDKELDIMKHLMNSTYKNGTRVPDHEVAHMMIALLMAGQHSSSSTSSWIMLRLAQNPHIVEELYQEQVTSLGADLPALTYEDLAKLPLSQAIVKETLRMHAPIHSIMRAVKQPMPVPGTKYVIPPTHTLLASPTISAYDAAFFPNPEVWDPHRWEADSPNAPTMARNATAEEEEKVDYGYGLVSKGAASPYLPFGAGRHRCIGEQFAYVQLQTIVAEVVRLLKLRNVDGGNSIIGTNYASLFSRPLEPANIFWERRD

[4] = test system: VvCYP51 gene expression in isolate FJ4-1b; assay: Induction of VvCYP51 gene expression by tebuconazole (real-time PCR); conditions: 0.1 μg/ml tebuconazole for 6 h, versus untreated control
Description: The wild type isolates, mutant, and transformants were grown in 50 ml of PSB at 28 °C for 7 days on a 160 rpm orbital shaker. Total RNA was extracted from mycelia using the TRIzole reagent (Aidlab, Beijing, China), then digested with DNase I nuclease (Takara, Dalian, China) to remove DNA contamination. The cDNA was synthesized using a RevertAid First Strand cDNA Synthesis Kit employing the oligo(dT)18 primer (Thermo Fisher Scientific, Waltham, MA). The expression of the VvCYP51 gene was evaluated by real-time PCR using the primer pair RealCYP51-F/RealCYP51-R. Expression was normalized with the α-tubulin gene. Relative expression was calculated using the comparative Ct (2^−ΔΔCt) method[51]. […] Real-time PCR amplifications of VvCYP51 were performed in a CFX96 Real-Time PCR Detection System (Bio-Rad Laboratories Inc., Hercules, CA) using SYBR Green I fluorescent dye. Amplifications were conducted in a 20-μl volume containing 10 μl of SYBR qPCR Mix (Aidlab, Beijing, China), 1 μl of RT product and 0.2 μM of each primer. All samples were in triplicates with the following profile: an initial preheat at 95 °C for 2 min, followed by 40 cycles at 95 °C for 20 s, 60 °C for 20 s and 72 °C for 20 s. The entire experiment starting with RNA extractions was repeated four times.

CC(C)(C)C(O)(CCc1ccc(Cl)cc1)Cn1cncn1 (stereo not drawn) [tebuconazole]
EC50 [1]: 0.04 µg/mL (≈ 0.13 µM)
EC50 ([2]; 336 h, read-out: EC50 value, transformant P-F 4, mycelial growth on PSA, 28 °C, 14 days): 0.11 µg/mL (≈ 0.357 µM)
EC50 ([2]; 336 h, read-out: EC50 value, transformant P-F 7, mycelial growth on PSA, 28 °C, 14 days): 0.24 µg/mL (≈ 0.78 µM)
EC50 ([2]; 336 h, read-out: EC50 value, transformant P-F 8, mycelial growth on PSA, 28 °C, 14 days): 0.13 µg/mL (≈ 0.422 µM)
EC50 ([2]; 336 h, read-out: EC50 value, transformant P-F 9, mycelial growth on PSA, 28 °C, 14 days): 0.15 µg/mL (≈ 0.487 µM)
EC50 ([2]; 336 h, read-out: EC50 value, transformant P-F 10, mycelial growth on PSA, 28 °C, 14 days): 0.12 µg/mL (≈ 0.39 µM)
EC50 ([2]; 336 h, read-out: EC50 value, transformant P-F 13, mycelial growth on PSA, 28 °C, 14 days): 0.11 µg/mL (≈ 0.357 µM)
EC50 ([2]; 336 h, read-out: EC50 value, transformant P-F 14, mycelial growth on PSA, 28 °C, 14 days): 0.28 µg/mL (≈ 0.91 µM)
EC50 ([2]; 336 h, read-out: EC50 value, transformant P-F 15, mycelial growth on PSA, 28 °C, 14 days): 0.13 µg/mL (≈ 0.422 µM)
EC50 ([2]; 336 h, read-out: EC50 value, transformant P-F 16, mycelial growth on PSA, 28 °C, 14 days): 0.13 µg/mL (≈ 0.422 µM)
EC50 ([2]; 336 h, read-out: EC50 value, transformant P-F 17, mycelial growth on PSA, 28 °C, 14 days): 0.2 µg/mL (≈ 0.65 µM)
EC50 ([2]; 336 h, read-out: EC50 value, transformant P-F 20, mycelial growth on PSA, 28 °C, 14 days): 0.27 µg/mL (≈ 0.877 µM)
EC50 ([2]; 336 h, read-out: EC50 value, transformant P-F 22, mycelial growth on PSA, 28 °C, 14 days): 0.15 µg/mL (≈ 0.487 µM)
EC50 ([2]; 336 h, read-out: EC50 value, transformant P-F 23, mycelial growth on PSA, 28 °C, 14 days): 0.2 µg/mL (≈ 0.65 µM)
EC50 ([2]; 336 h, read-out: EC50 value, transformant P-F 25, mycelial growth on PSA, 28 °C, 14 days): 0.15 µg/mL (≈ 0.487 µM)
EC50 ([2]; 336 h, read-out: EC50 value, transformant P-F 26, mycelial growth on PSA, 28 °C, 14 days): 0.18 µg/mL (≈ 0.585 µM)
EC50 ([2]; 336 h, read-out: EC50 value, transformant P-F 28, mycelial growth on PSA, 28 °C, 14 days): 0.13 µg/mL (≈ 0.422 µM)
EC50 ([2]; 336 h, read-out: EC50 value, transformant P-F 29, mycelial growth on PSA, 28 °C, 14 days): 0.26 µg/mL (≈ 0.845 µM)
EC50 ([2]; 336 h, read-out: EC50 value, transformant P-F 31, mycelial growth on PSA, 28 °C, 14 days): 0.25 µg/mL (≈ 0.812 µM)
EC50 ([2]; 336 h, read-out: EC50 value, transformant P-F 32, mycelial growth on PSA, 28 °C, 14 days): 0.32 µg/mL (≈ 1.04 µM)
EC50 ([2]; 336 h, read-out: EC50 value, transformant P-F 33, mycelial growth on PSA, 28 °C, 14 days): 0.12 µg/mL (≈ 0.39 µM)
EC50 ([2]; 336 h, read-out: EC50 value, transformant P-F 34, mycelial growth on PSA, 28 °C, 14 days): 0.15 µg/mL (≈ 0.487 µM)
EC50 ([2]; 336 h, read-out: EC50 value, transformant P-F 36, mycelial growth on PSA, 28 °C, 14 days): 0.22 µg/mL (≈ 0.715 µM)
EC50 ([2]; 336 h, read-out: EC50 value, transformant P-F 37, mycelial growth on PSA, 28 °C, 14 days): 0.11 µg/mL (≈ 0.357 µM)
EC50 ([2]; 336 h, read-out: EC50 value, transformant P-F 38, mycelial growth on PSA, 28 °C, 14 days): 0.31 µg/mL (≈ 1.01 µM)
EC50 ([2]; 336 h, read-out: EC50 value, transformant P-F 39, mycelial growth on PSA, 28 °C, 14 days): 0.13 µg/mL (≈ 0.422 µM)
EC50 ([2]; 336 h, read-out: EC50 value, transformant P-F 40, mycelial growth on PSA, 28 °C, 14 days): 0.21 µg/mL (≈ 0.682 µM)
EC50 ([2]; read-out: EC50 values (range), range over the 26 pB-Vv51wt transformants): 0.11 to 0.32 µg/mL (≈ 0.357 to 1.04 µM)
Kd ([3]; bound for the three different truncated wild type VvCYP51 proteins, read-out: Kd values): < 40 nM
Kd ([3]; wild type VvCYP51, −28aa N-terminal truncation, read-out: Kd): 37 ± 2.7 nM
Kd ([3]; wild type VvCYP51, −42aa N-terminal truncation, read-out: Kd): 34 ± 2.3 nM
Kd ([3]; wild type VvCYP51, −74aa N-terminal truncation, read-out: Kd): 37 ± 2.5 nM
increase of expression of VvCYP51 gene [4]: 29.94 fold
